How the values were obtained:
[1] = system: THP-1 cell-derived macrophage; experiment: Cholesterol ester accumulation-inhibitory activity (THP-1 cell-derived macrophage foam cell formation); format: cell-based; details: THP-1 macrophage, acetyl LDL, 3 days
Procedure: THP-1 cells (DAINIPPON PHARMACEUTICAL CO., LTD.) were subcultured in RPMI-1640 medium containing 10% fetal calf serum (FBS), and cells at 6-13th passage after purchase were used. The cells were suspended in FBS-containing RPMI-1640 medium to give a suspension having a concentration of 4×10^5 cells/mL. The cell suspension was seeded on 12-well microplate by 1 mL, and treated with phorbol 12-myristate 13-acetate (PMA, 200 nM) as a differentiation inducer into macrophage. Then, acetyl LDL (400 μg/mL) separately prepared from LDL derived from plasma of a rabbit with genetic hyperlipidemia (KHC rabbit, Japan Laboratory Animals Inc.) was added. A test compound further dissolved in dimethyl sulfoxide (DMSO) and diluted with FBS-containing RPMI-1640 medium and a control solvent were applied. After cultivation in a carbon dioxide incubator for 3 days, the cells were washed with phosphate-buffered saline (pH 7.0), and the lipid was extracted with hexane-isopropanol (3:2). In addition, the cells were lysed with 1N-NaOH, and the protein content was measured. Free cholesterol and cholesterol ester in the lipid extraction sample were measured according to the method of Kunitomo et al. [Japan. J. Pharmacol., 34, 153-158 (1984)]. Cholesterol esters in the control cells and the cells treated with the test compound were compared, and the cholesterol ester accumulation inhibitory rate of the test compound was calculated.

[2] = system: cholesterol secretion from the liver; experiment: Mouse liver lipid secretion-inhibitory activity (Triton WR-1339 method); format: in vivo, Slc: ICR mice; details: (10 mg)/kg orally; 3 hr after Triton WR-1339; mice
Procedure: About 5-week-old male Slc: ICR mice (Japanese SLC) were preliminarily bred for 1 week by feeding only in the daytime (9:00-18:00). During this period, the mice were-allowed to freely take tap water even during night. The mice were divided into a control group and a test compound group (6 mice per group) so that the average and standard deviation of the body weight would be almost the same. Blood (about 80 μL) was drawn from the orbital venous plexus under anesthesia using a glass capillary, and a test compound solution (10 mL/kg) obtained by previously suspending the compound in 5% gum arabic solution at 30 min after the blood sampling was orally administered. At 30 min after the administration, Triton WR-1339 (60 mg/mL) solution previously prepared with physiological saline was administered from the tail vein at a dose of 5 mL/kg. Blood was drawn again from the orbital venous plexus at 3 hr after the administration of Triton WR-1339. Plasma was separated from the blood taken and the total plasma cholesterol (TC) was measured using a commercially available measurement kit (Wako Pure Chemical Industries, Ltd.). The changes in the blood concentration over 3 hr after the Triton WR-1339 administration were calculated and taken as the cholesterol secretion rate from the liver. The secretion rates were compared between the control group and the test compound group, and the cholesterol secretion inhibitory rate by the test compound was calculated.

[3] = Stable radical elimination action (DPPH); details: 0.1 mM DPPH, room temperature 20 min (Examples 69, 72 and 73)
Procedure: 0.1 mM Diphenyl-2-picrylhydrazyl (DPPH) acetonitrile (CH3CN) solution (3 mL) was placed in a glass test tube, and a DMSO solution of a test compound was added at a 1% dose (30 μL). As a control, 0.1 mM DPPH CH3CN solution (3 mL) containing DMSO (30 μL) was used and for a blank test, CH3CN (3 mL) containing DMSO (30 μL) was used. After standing the solutions at room temperature for 60 min (20 min for Examples 69, 72 and 73), the absorbance at 517 nm was measured by a spectrophotometer. A stable radical inhibitory rate when control was 100% was calculated from [(absorbance of test substance−absorbance of blank test)÷(absorbance of control−absorbance of blank test)].

liver ACAT = experiment: ACAT inhibitory activity (rabbit liver microsome, cholesteryl oleate production); format: biochemical, Japanese white rabbits; details: 37° C. for 20 min
Procedure: Male Japanese white rabbits (body weight 2-2.5 kg) were bred on 100 g of a high cholesterol feed (feed added with cholesterol 1%, CLEA Japan, Inc.) daily for 4 weeks and sacrificed by exsanguination under anesthesia. The liver was removed, homogenated and centrifuged at 10,000 rpm and 4° C. for 15 min. The obtained supernatant was further centrifuged at 41,000 rpm and 4° C. for 60 min to give a microsome fraction. To a 0.15 M phosphate buffer were added the microsome suspension as an enzyme specimen, dimethyl sulfoxide (DMSO) or a solution (3 μL) of a test compound in DMSO and [1-14C]-oleoyl-CoA to be a reaction substrate to the total amount of 300 μL. After incubation at 37° C. for 20 min, a mixed solution of chloroform-methanol was added to quench the reaction. Water was added thereto and mixed, and the chloroform layer was separated. The solvent was evaporated to dryness and the residue was redissolved in n-hexane. The resulting solution was subjected to thin layer chromatography using a silica gel plate. The spot of cholesteryl oleate on the silica gel plate was scraped and quantified on a liquid scintillation counter. The ACAT inhibitory activity of the test compound is shown in cholesteryl oleate production inhibitory rate (%) [level of inhibition of cholesteryl oleate production as compared to the control].

[4] = Oral administration experiment (plasma concentration); format: in vivo; details: (10 mg)/kg orally, male SD rats, plasma 0.5-6 hr
Procedure: The test compound (10 mg)/kg suspended in 5% gum arabic solution was forcedly administered orally to male SD rats (body weight 200-250 g). At 0.5, 1, 2, 4, 6 hr after administration, blood was drawn without anesthesia, and heparin plasma was separated by a conventional method. The concentration of the test compound in the plasma was measured by high performance liquid chromatography.

| maximum blood concentration [4] [µg/mL] | Compound | cholesteryl ester accumulation inhibitory rate (%) (concentration: 10^−6 M) [1] | Cholesterol secretion inhibitory rate (%) (10 mg)/kg/3 hr [2] | inhibitory rate (%) (10^−4M), stable radical [3] | liver ACAT inhibition rate (%) (concentration: 10^−6 M) (liver ACAT) |
| --- | --- | --- | --- | --- | --- |
|  | CCC(C)(C)C(=O)N1Cc2cc(N(C)C)ccc2C[C@H]1C(=O)Nc1cc(C)c(O)c(C)c1C.Cl [Example 69, 7-dimethylamino-2-(2,2-dimethylbutyryl)-N-(4-hydroxy-2,3,5-trimethylphenyl)-1,2,3,4-tetrahydroisoquinoline-(3S)-carboxamide hydrochloride] | 99.4 | 31.4 | 97.0 |  |
|  | C/C=C/C=C/C(=O)N1Cc2cc(N(C)C)ccc2C[C@H]1C(=O)Nc1cc(C)c(O)c(C)c1C.Cl [Example 70, 7-dimethylamino-2-[(2E,4E)-hexadienoyl]-N-(4-hydroxy-2,3,5-trimethylphenyl)-1,2,3,4-tetrahydroisoquinoline-(3S)-carboxamide hydrochloride] |  | 23.0 |  |  |
| 0.55 | Cc1cc(NC(=O)[C@@H]2Cc3ccc(N(C)C)cc3CN2C(=O)C(C)(C)C)c(C)c(C)c1O.Cl [Example 73, 7-dimethylamino-2-(2,2-dimethylpropionyl)-N-(4-hydroxy-2,3,5-trimethylphenyl)-1,2,3,4-tetrahydroisoquinoline-(3S)-carboxamide hydrochloride] | 91.8 | 32.9 | 97.0 | 97.7 |
